# Source: patent US8168860B2, “Compositions and methods for the modification of physiological responses in plants” (Rohm and Haas Company, priority 2007, dated 2012)
# Tests used:
# ACC oxidase = ACC oxidase expression in excised corn stalk sheath tissue, quantitative PCR; type: cell-based; conditions: for ACC Oxidase Expression (relative): normalized to 0 inducer/0 ACC; for AVG ACO Expression: average of corn lines
# Description: Corn plants were transformed using the plasmids for Example 1 by microparticle bombardment. Putative transformants were selected using either actinonin or bialaphos and confirmed by PCR analysis. Positive transformants were backcrossed to inbred B73 to increase vigor. Transgenic corn plants produced as described above were tested for modulation of ethylene sensitivity. Modulation of ethylene sensitivity was determined at the molecular level by exposing plants to ethylene and measuring the change in induction of ethylene-induced genes.
# Transgenic corn plants produced as described above were tested for modulation of ethylene sensitivity. Modulation of ethylene sensitivity was determined at the molecular level by exposing plants to ACC, the precursor of ethylene and measuring the change in induction of ethylene-induced genes. Stalk sheath tissue was excised from transgenic T0 corn plants growing in a green house and used in an in vitro bioassay. Excised tissue was treated with either water or 20 μM inducer for 2 days to induce expression of the ethylene insensitive etr1-1 transgene. Following the 2 day induction period, the tissue was treated for one day with 0, 1 or 10 μM ACC to produce ethylene and then harvested. Harvested tissue was immediately placed in RNAlater (Ambion). Total RNA was prepared from the tissue using MagMAX-96 Total RNA Isolation Kit (Ambion). Induction of an ethylene inducible gene (ACC oxidase) was measured using quantitative PCR on an Applied Biosystems 7900 HT Fast Real-Time PCR system (ABI). TaqMan Assay Kit (ABI) was used for reverse transcriptase (RT) and PCR using manufacturer recommended protocols. Corn 18s was used as an internal control to normalize expression for each sample.
# Sequences for the primers and probes were as follows: […]
# In order to determine gene expression, ACC oxidase expression in the 0 μM inducer plus 0 μM ACC control treatment was normalized for each respective corn line.
# [1] = system: tomato seedlings (WT, p1002-18, p1003-16); experiment: Tomato seedling growth on 20 μM ACC and various levels of inducer; type: in vivo; conditions: 20 μM ACC; for Hypocotyl (mm) / Root (mm): 10 day old seedlings
# Description: Homozygous tomato seeds from one p1002 containing and one p1003 containing line were germinated on medium containing 20 μM ACC and various levels of inducer (i.e., 0.5-20 μM).
# [2] = system: transformed tobacco plants; experiment: Triple response assay, shoot length of transformed tobacco shoots in dark with ethylene; type: in vivo; conditions: tobacco plant 185-3 (VGE), induced, 10 μM inducer, ethylene about 10 ppm, 18 days
# [3] = system: tomato seedlings (WT, p1002-18, p1003-16); experiment: Tomato seedling growth on 20 μM inducer and various levels of ACC; type: in vivo; conditions: WT tomato; 20 μM inducer; 5 μM Ag; 14 day old seedlings
# [4] = p1002-18 tomato, Inducer 0.5 μM
# [5] = p1002-18 tomato, Inducer 2.5 μM
# [6] = p1003-16 tomato, Inducer 0.5 μM
# [7] = p1003-16 tomato, Inducer 2.5 μM
structure (smiles),measurement,setting,value
"CCC(N(NC(=O)c1ccc2c(c1C)O[C@@H](CO)CO2)C(=O)c1cc(C)cc(C)c1)C(C)(C)C (stereo partly drawn) [inducer, 3,5 Dimethyl-benzoic acid N-(1-ethyl-2,2-dimethyl-propyl)-N′-(3S-hydroxymethyl-5-methyl-2,3-dihydro-benzo[1,4]dioxine-6-carbonyl)hydrazide]",ACC Oxidase Expression (relative),"ACC oxidase; Corn Line 4.5, 20 μM inducer/0 ACC",1.351
same,ACC Oxidase Expression (relative),"ACC oxidase; Corn Line 4.5, 20 μM inducer/1 μM ACC",1.081
same,ACC Oxidase Expression (relative),"ACC oxidase; Corn Line 4.5, 20 μM inducer/10 μM ACC",0.4184
same,ACC Oxidase Expression (relative),"ACC oxidase; Corn Line 4.6, 20 μM inducer/0 ACC",1.148
same,ACC Oxidase Expression (relative),"ACC oxidase; Corn Line 4.6, 20 μM inducer/1 μM ACC",0.7581
same,ACC Oxidase Expression (relative),"ACC oxidase; Corn Line 4.6, 20 μM inducer/10 μM ACC",0.3348
same,ACC Oxidase Expression (relative),"ACC oxidase; Corn Line 4.7, 20 μM inducer/0 ACC",0.7452
same,ACC Oxidase Expression (relative),"ACC oxidase; Corn Line 4.7, 20 μM inducer/1 μM ACC",1.388
same,ACC Oxidase Expression (relative),"ACC oxidase; Corn Line 4.7, 20 μM inducer/10 μM ACC",0.2557
same,ACC Oxidase Expression (relative),"ACC oxidase; Corn Line 10.2, 20 μM inducer/0 ACC",1.378
same,ACC Oxidase Expression (relative),"ACC oxidase; Corn Line 10.2, 20 μM inducer/1 μM ACC",0.4928
same,ACC Oxidase Expression (relative),"ACC oxidase; Corn Line 10.2, 20 μM inducer/10 μM ACC",0.6761
same,ACC Oxidase Expression (relative),"ACC oxidase; Corn Line 10.4, 20 μM inducer/0 ACC",0.3437
same,ACC Oxidase Expression (relative),"ACC oxidase; Corn Line 10.4, 20 μM inducer/1 μM ACC",0.3591
same,ACC Oxidase Expression (relative),"ACC oxidase; Corn Line 10.4, 20 μM inducer/10 μM ACC",1.821
same,ACC Oxidase Expression (relative),"ACC oxidase; Corn Line 10.5, 20 μM inducer/0 ACC",0.6804
same,ACC Oxidase Expression (relative),"ACC oxidase; Corn Line 10.5, 20 μM inducer/1 μM ACC",0.06813
same,ACC Oxidase Expression (relative),"ACC oxidase; Corn Line 10.5, 20 μM inducer/10 μM ACC",0.1983
same,ACC Oxidase Expression (relative),"ACC oxidase; Corn Line B73, 20 μM inducer/0 ACC",1.964
same,ACC Oxidase Expression (relative),"ACC oxidase; Corn Line B73, 20 μM inducer/1 μM ACC",0.09506
same,ACC Oxidase Expression (relative),"ACC oxidase; Corn Line B73, 20 μM inducer/10 μM ACC",0.2589
same,AVG ACO Expression,ACC oxidase; 20 μM inducer/0 ACC,1.087
same,AVG ACO Expression,ACC oxidase; 20 μM inducer/1 μM ACC,0.6061
same,AVG ACO Expression,ACC oxidase; 20 μM inducer/10 μM ACC,0.5662
same,average expression of ACC oxidase in the transgenic corn lines,ACC oxidase; presence of inducer plus ACC,repressed
same,"ethylene insensitivity, based on decreased expression of ethylene inducible genes","ACC oxidase; transgenic corn with etr1-1 cassettes, presence of inducing compound, exposed to ethylene",demonstrated ethylene insensitivity
same,Hypocotyl (mm),"[1]; WT tomato, Inducer 20 μM",6.24 ± 2.75 mm
same,Root (mm),"[1]; WT tomato, Inducer 20 μM",9.06 ± 14.8 mm
same,Hypocotyl (mm),[1]; [4],8.40 ± 6.29 mm
same,Root (mm),[1]; [4],12.0 ± 13.3 mm
same,Hypocotyl (mm),"[1]; p1002-18 tomato, Inducer 1 μM",11.1 ± 7.41 mm
same,Root (mm),"[1]; p1002-18 tomato, Inducer 1 μM",16.5 ± 16.6 mm
same,Hypocotyl (mm),[1]; [5],13.5 ± 8.97 mm
same,Root (mm),[1]; [5],16.0 ± 16.6 mm
same,Hypocotyl (mm),"[1]; p1002-18 tomato, Inducer 5 μM",14.5 ± 7.75 mm
same,Root (mm),"[1]; p1002-18 tomato, Inducer 5 μM",15.2 ± 8.39 mm
same,Hypocotyl (mm),"[1]; p1002-18 tomato, Inducer 10 μM",19.8 ± 10.8 mm
same,Root (mm),"[1]; p1002-18 tomato, Inducer 10 μM",22.7 ± 13.5 mm
same,Hypocotyl (mm),"[1]; p1002-18 tomato, Inducer 20 μM",26.3 ± 11.9 mm
same,Root (mm),"[1]; p1002-18 tomato, Inducer 20 μM",33.3 ± 12.8 mm
same,Hypocotyl (mm),[1]; [6],17.0 ± 6.46 mm
same,Root (mm),[1]; [6],14.4 ± 15.3 mm
same,Hypocotyl (mm),"[1]; p1003-16 tomato, Inducer 1 μM",20.9 ± 10.7 mm
same,Root (mm),"[1]; p1003-16 tomato, Inducer 1 μM",10.3 ± 12.7 mm
same,Hypocotyl (mm),[1]; [7],20.1 ± 8.77 mm
same,Root (mm),[1]; [7],9.19 ± 8.98 mm
same,Hypocotyl (mm),"[1]; p1003-16 tomato, Inducer 5 μM",23.6 ± 11.4 mm
same,Root (mm),"[1]; p1003-16 tomato, Inducer 5 μM",20.2 ± 14.9 mm
same,Hypocotyl (mm),"[1]; p1003-16 tomato, Inducer 10 μM",25.9 ± 8.77 mm
same,Root (mm),"[1]; p1003-16 tomato, Inducer 10 μM",29.1 ± 12.4 mm
same,Hypocotyl (mm),"[1]; p1003-16 tomato, Inducer 20 μM",27.5 ± 9.10 mm
same,Root (mm),"[1]; p1003-16 tomato, Inducer 20 μM",25.6 ± 11.4 mm
same,relation of inducer concentration to level of ethylene insensitivity,"[1]; tomato p1002 and p1003 line, inducer 0.5-20 μM",directly related to the level of ethylene insensitivity
same,Shoot Length Avg (cm),[2],5.6 cm
same,Hypocotyl (mm),[3],41.4 ± 8.20 mm
same,Root (mm),[3],22.3 ± 5.66 mm
